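Cultured in 96-well plates, cells were exposed to test compound for 48 hours across five concentrations. GI50 = concentration required for 50% inhibition of growth.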 Activity calls are given as the source filed them. Rule as the data show it: active = GI50 up to about 1.1 µM and inactive = higher.
How the values were obtained:
Test in all cases: NCI anticancer screen, dose series, 48 h
[1] = test system: KM12
[2] = test system: M14
[3] = test system: HOP-92
[4] = test system: SK-MEL-5
[5] = test system: IGROV-1
[6] = test system: HT-29
[7] = test system: CCRF-CEM
[8] = test system: U-251
[9] = test system: OVCAR-4
[10] = test system: SNB-19
[11] = test system: Malme-3M
[12] = test system: OVCAR-3
[13] = test system: RPMI-8226
[14] = test system: OVCAR-5
[15] = test system: NCI-H460
[16] = test system: SW-620
[17] = test system: OVCAR-8

Measured: GI50

CN(/N=C\c1ccnc2ccccc12)c1ccccc1
inactive: [1] 19 µM | [2] 18.9 µM | [3] 25.4 µM | [4] 17.3 µM | [5] 45.5 µM | [6] 18.9 µM | [7] 10 µM | [8] 25.8 µM | [9] 25.4 µM | [10] 29.2 µM | [11] 23.8 µM | [12] 20.2 µM | [13] > 100 µM | [14] 16.8 µM | [15] 23.7 µM | [16] 23 µM | [17] 38.3 µM

Nc1nc(=O)c(/N=N/c2ccccc2)c(N)[nH]1
inactive: [1] 56.2 µM | [2] 28 µM | [3] 22.5 µM | [4] 51.8 µM | [5] 29.6 µM | [6] 28.4 µM | [7] 36.5 µM | [8] 14.4 µM | [9] > 100 µM | [10] > 100 µM | [11] 15.3 µM | [12] 71.8 µM | [13] > 100 µM | [14] 41.3 µM | [15] 24.6 µM | [16] 78.2 µM | [17] 43.5 µM

CCCCCCCCCCCCCCCC(=O)NCC(COP(=O)([O-])OCC[N+](C)(C)C)OCC (stereo not drawn)
inactive: [1] 1.27 µM | [2] 11.5 µM | [3] 3.52 µM | [4] 18.9 µM | [5] 4.54 µM | [6] 5.22 µM | [8] 4.16 µM | [9] 3.21 µM | [10] 3.71 µM | [11] 16.9 µM | [12] 6.25 µM | [13] 2.9 µM | [14] 10 µM | [15] 2.96 µM | [16] 13 µM | [17] 4.42 µM

CC1=NN(C(=O)Nc2ccccc2)C(=O)C2CCC(=O)N12 (stereo not drawn)
inactive: [1] > 100 µM | [2] > 100 µM | [3] > 100 µM | [4] > 100 µM | [5] > 100 µM | [7] > 100 µM | [8] > 100 µM | [9] > 100 µM | [10] > 100 µM | [12] > 100 µM | [13] > 100 µM | [15] > 100 µM | [16] > 100 µM | [17] > 100 µM

CSC1C=C(C(C)C)CCC1(C)SC (stereo not drawn)
inactive: [1] 14.3 µM | [2] 16.9 µM | [3] 16.2 µM | [4] 17.5 µM | [5] 20.9 µM | [6] 15.4 µM | [7] 21 µM | [8] 19.5 µM | [9] 18.1 µM | [10] 21.2 µM | [11] 13.3 µM | [12] 12.6 µM | [13] 20.9 µM | [14] 16.2 µM | [15] 17.2 µM | [16] 19.9 µM | [17] 19.4 µM

CCOC(=O)/C=C(/CN1C(=O)c2ccccc2C1=O)c1ccccc1
inactive: [1] > 100 µM | [2] > 100 µM | [3] > 100 µM | [4] > 100 µM | [5] > 100 µM | [6] > 100 µM | [7] > 100 µM | [8] > 100 µM | [9] > 100 µM | [10] > 100 µM | [11] > 100 µM | [12] > 100 µM | [13] > 100 µM | [14] > 100 µM | [15] > 100 µM | [16] > 100 µM | [17] > 100 µM

C[N+](C)(C)C1CC([N+](C)(C)C)C2c3ccccc3C21 (stereo not drawn)
inactive: [1] > 100 µM | [2] > 100 µM | [3] > 100 µM | [4] > 100 µM | [5] > 100 µM | [6] > 100 µM | [7] > 100 µM | [8] > 100 µM | [9] > 100 µM | [10] > 100 µM | [11] > 100 µM | [12] > 100 µM | [13] > 100 µM | [14] > 100 µM | [15] > 100 µM | [16] > 100 µM | [17] > 100 µM

O=C(CC1(O)C(=O)Nc2c(Cl)ccc(Cl)c21)c1ccc(F)cc1 (stereo not drawn)
inactive: [1] 43 µM | [2] 38.8 µM | [3] 30.4 µM | [4] 17.9 µM | [6] 40.4 µM | [7] 25.9 µM | [8] 67.3 µM | [9] 31 µM | [10] 46.6 µM | [11] 69.5 µM | [12] 34.8 µM | [13] 18 µM | [14] > 100 µM | [15] 54.8 µM | [16] 34.1 µM | [17] 36.3 µM

OC12CCC3(OC4CCCCO4)c4ccccc4C3C1c1ccccc12 (stereo not drawn)
inactive: [1] 54.6 µM | [2] 67.6 µM | [4] 48.5 µM | [6] 43.9 µM | [7] 58.9 µM | [8] 53.8 µM | [9] > 100 µM | [10] 61.9 µM | [11] > 100 µM | [13] 36 µM | [15] 35.2 µM | [16] 55.6 µM | [17] 74.3 µM

NC(=O)c1nc(-c2ccc(Cl)c(Cl)c2)nc2ccccc12
inactive: [1] > 100 µM | [2] > 100 µM | [3] 1.56 µM | [4] > 49.3 µM | [5] > 100 µM | [6] > 100 µM | [7] > 100 µM | [8] > 28 µM | [9] > 100 µM | [10] 17.8 µM | [11] 4.92 µM | [13] > 21.1 µM | [14] > 100 µM | [15] > 55.7 µM | [16] > 22 µM

COc1ccc(NC(=O)CC(=O)N/N=C(\C)c2cc3ccccc3oc2=O)cc1
inactive: [1] > 100 µM | [2] > 100 µM | [4] > 100 µM | [5] > 100 µM | [6] > 100 µM | [7] > 100 µM | [8] > 100 µM | [10] > 100 µM | [11] > 100 µM | [12] > 100 µM | [13] > 100 µM | [15] > 100 µM | [16] > 100 µM | [17] > 100 µM

COC(=O)C(=O)C(C(=O)C(=O)Nc1ccccc1[N+](=O)[O-])c1nc2ccc([N+](=O)[O-])cc2nc1O (stereo not drawn)
inactive: [1] > 100 µM | [2] > 100 µM | [3] > 100 µM | [4] 46.2 µM | [5] > 100 µM | [6] > 100 µM | [7] > 100 µM | [8] > 100 µM | [9] > 100 µM | [10] > 100 µM | [11] > 100 µM | [13] > 100 µM | [14] > 100 µM | [15] > 100 µM | [16] > 100 µM | [17] > 100 µM

COc1ccc(C(=O)C(c2ccc(OC)cc2)C2(O)C(=O)Nc3c(C)cc(Cl)cc32)cc1 (stereo not drawn)
inactive: [1] > 100 µM | [2] 92 µM | [3] 21.9 µM | [5] 72.8 µM | [6] 63.5 µM | [7] 10.3 µM | [8] 45.2 µM | [9] 63.2 µM | [10] > 100 µM | [11] > 100 µM | [12] 52 µM | [13] 14.4 µM | [14] > 100 µM | [15] > 100 µM | [16] > 100 µM | [17] 92.7 µM

c1ccc(SC(Sc2ccccc2)=C2CCC2)cc1
inactive: [1] > 100 µM | [2] > 100 µM | [3] 55.3 µM | [4] > 100 µM | [7] > 100 µM | [8] > 100 µM | [9] > 100 µM | [10] > 100 µM | [12] > 100 µM | [13] > 100 µM | [15] > 100 µM | [16] > 100 µM | [17] > 100 µM

C/C(=N/O)c1ccc2c(c1)/C(=N/O)c1cc(/C(C)=N/O)ccc1-2
inactive: [1] 16.3 µM | [2] 16.4 µM | [3] 26.1 µM | [4] 14.9 µM | [5] 21.1 µM | [6] 12.6 µM | [8] 15.3 µM | [9] 16.3 µM | [10] 13.8 µM | [11] 11 µM | [12] 20.3 µM | [13] 26.5 µM | [14] 17.4 µM | [15] 17.7 µM | [16] 14.5 µM | [17] 16.7 µM

COc1ccc(C(=O)C(CC2C(=O)NC(=O)NC2=O)c2ccc(OC)cc2)cc1 (stereo not drawn)
inactive: [1] > 100 µM | [2] > 100 µM | [4] > 100 µM | [5] > 100 µM | [6] > 100 µM | [7] > 100 µM | [8] > 100 µM | [9] > 100 µM | [10] > 100 µM | [11] > 100 µM | [12] > 100 µM | [14] > 100 µM | [15] > 100 µM | [16] > 100 µM | [17] > 100 µM

CSc1nnc(COc2ccc(Cl)cc2)o1
inactive: [1] > 100 µM | [2] > 100 µM | [4] > 100 µM | [5] > 100 µM | [6] > 100 µM | [8] > 100 µM | [9] > 100 µM | [10] > 100 µM | [11] > 100 µM | [12] > 100 µM | [14] > 100 µM | [15] > 100 µM | [16] > 100 µM | [17] > 100 µM

COC(=O)[C@@H]1CSC(=S)N1C(=O)C[C@H]1CC=CC[C@H]1CC(=O)Sc1ccccc1
inactive: [1] 15.1 µM | [2] 16.7 µM | [5] 19.8 µM | [6] 19.8 µM | [7] 3.04 µM | [8] 15.5 µM | [9] > 10 µM | [10] 18.2 µM | [11] 21.5 µM | [12] 19.2 µM | [13] 12.5 µM | [14] 19.1 µM | [15] 17.7 µM | [16] 17.4 µM | [17] 21 µM
